In paper PMC10176470, “Engaging a Non-catalytic Cysteine Residue Drives Potent and Selective Inhibition of Caspase-6” (Journal of the American Chemical Society, 2023) one finds enrich.exp.med, enrich.exp.med.lin and enrich.exp.med.log2 data, which are given here for one molecule.

What all share (assay type): cell-based
In assay [1] the target is proteins of HEK293T cells transiently overexpressing caspase-6 (Homo sapiens, UniProt P35908). The conditions noted are these: Probe; protein KRT2 P35908.
The target of assay [2] is proteins of HEK293T cells transiently overexpressing caspase-6 (Homo sapiens, UniProt P31943). The conditions noted are these: exp_ref Probe; protein HNRNPH1 (P31943); analysis C6.
The target of assay [3] is T1, proteins of HEK293T cells transiently overexpressing caspase-6 (Homo sapiens, UniProt O43175).
T1 sequence (O43175 1-533): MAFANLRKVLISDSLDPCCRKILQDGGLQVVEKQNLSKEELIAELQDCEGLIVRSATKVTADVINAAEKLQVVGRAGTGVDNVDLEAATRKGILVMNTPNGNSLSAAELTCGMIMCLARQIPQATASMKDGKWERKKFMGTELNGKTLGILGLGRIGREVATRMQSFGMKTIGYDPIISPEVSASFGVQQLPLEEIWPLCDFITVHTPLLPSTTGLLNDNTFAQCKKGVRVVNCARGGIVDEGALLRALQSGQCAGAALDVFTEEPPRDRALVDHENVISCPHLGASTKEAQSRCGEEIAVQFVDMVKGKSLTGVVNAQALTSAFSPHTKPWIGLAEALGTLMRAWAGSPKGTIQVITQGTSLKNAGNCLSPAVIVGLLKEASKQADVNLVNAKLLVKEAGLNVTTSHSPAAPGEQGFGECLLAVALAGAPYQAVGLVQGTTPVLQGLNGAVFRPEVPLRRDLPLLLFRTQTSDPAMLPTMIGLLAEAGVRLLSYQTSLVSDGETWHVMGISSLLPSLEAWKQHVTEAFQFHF
The conditions noted are these: protein PHGDH (O43175).

Assay [4] concerns the target T2, proteins of HEK293T cells transiently overexpressing caspase-6 (Homo sapiens, UniProt O60506).
T2 sequence (O60506 1-623): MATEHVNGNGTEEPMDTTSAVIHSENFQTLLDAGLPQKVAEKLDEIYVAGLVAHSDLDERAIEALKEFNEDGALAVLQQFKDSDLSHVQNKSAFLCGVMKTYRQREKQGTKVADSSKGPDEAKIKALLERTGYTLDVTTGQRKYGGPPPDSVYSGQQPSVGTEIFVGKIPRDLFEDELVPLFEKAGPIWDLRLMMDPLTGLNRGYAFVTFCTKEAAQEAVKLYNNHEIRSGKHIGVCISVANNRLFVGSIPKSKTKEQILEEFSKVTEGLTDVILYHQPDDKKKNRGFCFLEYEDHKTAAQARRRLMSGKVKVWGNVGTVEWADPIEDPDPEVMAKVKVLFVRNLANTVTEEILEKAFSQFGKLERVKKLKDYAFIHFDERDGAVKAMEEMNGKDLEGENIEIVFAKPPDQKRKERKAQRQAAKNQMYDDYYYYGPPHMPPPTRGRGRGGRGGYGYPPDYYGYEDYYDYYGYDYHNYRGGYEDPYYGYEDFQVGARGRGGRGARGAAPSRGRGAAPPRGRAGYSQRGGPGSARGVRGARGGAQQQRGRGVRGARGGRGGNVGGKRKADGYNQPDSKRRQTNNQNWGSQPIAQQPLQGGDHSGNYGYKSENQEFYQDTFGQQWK
The conditions noted are these: exp_ref Probe; protein SYNCRIP (O60506); analysis C6.

The target in assay [5] is proteins of HEK293T cells transiently overexpressing caspase-6 (Homo sapiens, UniProt P40227). The conditions noted are these: exp_ref Probe; protein CCT6A (P40227); analysis C6.
For assay [6], the target named is proteins of HEK293T cells transiently overexpressing caspase-6 (Homo sapiens, UniProt Q08211). The conditions noted are these: exp_ref Probe; protein DHX9 (Q08211); analysis C6.
For assay [7], the target named is T3, proteins of HEK293T cells transiently overexpressing caspase-6 (Homo sapiens, UniProt O43169).
T3 sequence (O43169 16-150): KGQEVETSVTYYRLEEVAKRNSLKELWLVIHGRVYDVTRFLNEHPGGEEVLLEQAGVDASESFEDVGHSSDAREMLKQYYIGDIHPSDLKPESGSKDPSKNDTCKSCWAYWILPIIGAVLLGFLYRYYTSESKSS
The conditions noted are these: protein CYB5B (O43169).

For assay [8], the target named is proteins of HEK293T cells transiently overexpressing caspase-6 (Homo sapiens, UniProt P61247). The conditions noted are these: protein RPS3A (P61247).
Assay [9] addresses proteins of HEK293T cells transiently overexpressing caspase-6 (Homo sapiens, UniProt P04406). The conditions noted are these: exp_ref Probe; protein GAPDH (P04406); analysis C6.
For assay [10], the target named is T4, proteins of HEK293T cells transiently overexpressing caspase-6 (Homo sapiens, UniProt P30101).
T4 sequence (P30101 25-505): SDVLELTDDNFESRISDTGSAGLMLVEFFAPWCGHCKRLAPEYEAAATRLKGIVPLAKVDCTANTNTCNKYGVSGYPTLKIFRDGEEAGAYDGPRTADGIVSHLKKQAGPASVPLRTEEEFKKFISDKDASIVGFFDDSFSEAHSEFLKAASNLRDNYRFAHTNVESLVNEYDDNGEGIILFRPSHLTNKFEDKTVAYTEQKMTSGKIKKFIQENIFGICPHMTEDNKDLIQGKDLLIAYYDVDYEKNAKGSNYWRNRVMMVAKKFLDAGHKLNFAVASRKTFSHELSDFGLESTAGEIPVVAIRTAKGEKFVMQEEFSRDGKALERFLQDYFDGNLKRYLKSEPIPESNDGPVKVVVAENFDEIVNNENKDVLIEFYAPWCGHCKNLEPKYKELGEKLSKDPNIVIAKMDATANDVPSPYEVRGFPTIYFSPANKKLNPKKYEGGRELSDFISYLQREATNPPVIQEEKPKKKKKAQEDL
The conditions noted are these: protein PDIA3 (P30101).

The target in assay [11] is proteins of HEK293T cells transiently overexpressing caspase-6 (Homo sapiens, UniProt Q92900). The conditions noted are these: Probe; protein UPF1 Q92900.
Assay [12] concerns the target proteins of HEK293T cells transiently overexpressing caspase-6 (Homo sapiens, UniProt P09429). The conditions noted are these: Probe; protein HMGB1 P09429.

Chain of proteins of HEK293T cells transiently overexpressing caspase-6 (Homo sapiens, UniProt P31943) (P31943 whole entry): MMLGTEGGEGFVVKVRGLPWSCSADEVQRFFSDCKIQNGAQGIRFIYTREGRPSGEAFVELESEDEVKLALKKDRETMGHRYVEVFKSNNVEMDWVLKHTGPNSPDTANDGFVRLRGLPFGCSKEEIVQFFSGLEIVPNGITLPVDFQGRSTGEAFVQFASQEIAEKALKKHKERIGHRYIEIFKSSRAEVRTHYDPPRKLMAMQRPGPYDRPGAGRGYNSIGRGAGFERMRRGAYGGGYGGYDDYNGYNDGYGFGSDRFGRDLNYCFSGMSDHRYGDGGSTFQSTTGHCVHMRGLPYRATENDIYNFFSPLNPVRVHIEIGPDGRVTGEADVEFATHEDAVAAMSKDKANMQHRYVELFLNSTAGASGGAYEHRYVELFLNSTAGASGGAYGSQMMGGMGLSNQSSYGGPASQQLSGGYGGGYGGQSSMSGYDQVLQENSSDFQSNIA
Chain of proteins of HEK293T cells transiently overexpressing caspase-6 (Homo sapiens, UniProt Q08211) (Q08211 whole entry): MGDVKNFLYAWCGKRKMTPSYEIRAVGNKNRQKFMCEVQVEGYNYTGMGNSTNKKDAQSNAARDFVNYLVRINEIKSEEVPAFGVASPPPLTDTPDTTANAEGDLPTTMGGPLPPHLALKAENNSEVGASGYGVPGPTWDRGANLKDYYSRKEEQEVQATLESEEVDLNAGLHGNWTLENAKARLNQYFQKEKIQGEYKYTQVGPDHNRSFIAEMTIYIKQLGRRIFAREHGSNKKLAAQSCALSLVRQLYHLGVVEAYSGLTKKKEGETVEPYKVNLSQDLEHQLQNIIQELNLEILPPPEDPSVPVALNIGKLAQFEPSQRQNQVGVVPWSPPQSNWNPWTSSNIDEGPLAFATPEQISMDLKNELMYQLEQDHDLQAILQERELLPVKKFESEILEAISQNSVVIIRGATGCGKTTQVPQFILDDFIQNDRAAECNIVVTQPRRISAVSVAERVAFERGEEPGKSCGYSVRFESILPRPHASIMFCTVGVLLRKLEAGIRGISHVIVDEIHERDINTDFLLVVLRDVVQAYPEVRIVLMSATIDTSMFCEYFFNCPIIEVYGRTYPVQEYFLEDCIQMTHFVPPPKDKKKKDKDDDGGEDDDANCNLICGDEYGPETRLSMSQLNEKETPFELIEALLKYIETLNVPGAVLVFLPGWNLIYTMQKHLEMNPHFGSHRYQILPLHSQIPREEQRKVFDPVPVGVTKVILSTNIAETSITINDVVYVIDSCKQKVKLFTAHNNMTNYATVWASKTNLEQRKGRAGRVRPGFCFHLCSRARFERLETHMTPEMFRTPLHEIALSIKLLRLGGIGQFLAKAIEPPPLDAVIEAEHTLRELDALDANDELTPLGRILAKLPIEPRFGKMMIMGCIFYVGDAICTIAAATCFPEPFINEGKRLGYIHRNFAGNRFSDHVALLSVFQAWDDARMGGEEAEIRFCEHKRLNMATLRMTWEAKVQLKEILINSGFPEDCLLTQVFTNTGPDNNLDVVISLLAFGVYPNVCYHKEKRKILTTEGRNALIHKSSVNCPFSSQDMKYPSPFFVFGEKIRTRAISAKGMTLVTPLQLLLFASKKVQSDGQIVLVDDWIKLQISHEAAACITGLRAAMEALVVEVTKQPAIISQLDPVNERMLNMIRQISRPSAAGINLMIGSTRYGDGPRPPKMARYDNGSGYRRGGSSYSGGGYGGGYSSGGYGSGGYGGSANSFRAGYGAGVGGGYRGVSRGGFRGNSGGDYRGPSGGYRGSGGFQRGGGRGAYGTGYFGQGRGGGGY
Chain of proteins of HEK293T cells transiently overexpressing caspase-6 (Homo sapiens, UniProt P09429) (P09429 whole entry): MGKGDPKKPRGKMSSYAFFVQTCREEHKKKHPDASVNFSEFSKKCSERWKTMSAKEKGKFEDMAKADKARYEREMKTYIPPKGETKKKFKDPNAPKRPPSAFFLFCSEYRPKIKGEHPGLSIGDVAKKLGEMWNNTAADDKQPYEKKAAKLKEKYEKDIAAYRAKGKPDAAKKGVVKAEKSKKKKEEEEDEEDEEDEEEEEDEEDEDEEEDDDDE
Chain of proteins of HEK293T cells transiently overexpressing caspase-6 (Homo sapiens, UniProt Q92900) (Q92900 whole entry): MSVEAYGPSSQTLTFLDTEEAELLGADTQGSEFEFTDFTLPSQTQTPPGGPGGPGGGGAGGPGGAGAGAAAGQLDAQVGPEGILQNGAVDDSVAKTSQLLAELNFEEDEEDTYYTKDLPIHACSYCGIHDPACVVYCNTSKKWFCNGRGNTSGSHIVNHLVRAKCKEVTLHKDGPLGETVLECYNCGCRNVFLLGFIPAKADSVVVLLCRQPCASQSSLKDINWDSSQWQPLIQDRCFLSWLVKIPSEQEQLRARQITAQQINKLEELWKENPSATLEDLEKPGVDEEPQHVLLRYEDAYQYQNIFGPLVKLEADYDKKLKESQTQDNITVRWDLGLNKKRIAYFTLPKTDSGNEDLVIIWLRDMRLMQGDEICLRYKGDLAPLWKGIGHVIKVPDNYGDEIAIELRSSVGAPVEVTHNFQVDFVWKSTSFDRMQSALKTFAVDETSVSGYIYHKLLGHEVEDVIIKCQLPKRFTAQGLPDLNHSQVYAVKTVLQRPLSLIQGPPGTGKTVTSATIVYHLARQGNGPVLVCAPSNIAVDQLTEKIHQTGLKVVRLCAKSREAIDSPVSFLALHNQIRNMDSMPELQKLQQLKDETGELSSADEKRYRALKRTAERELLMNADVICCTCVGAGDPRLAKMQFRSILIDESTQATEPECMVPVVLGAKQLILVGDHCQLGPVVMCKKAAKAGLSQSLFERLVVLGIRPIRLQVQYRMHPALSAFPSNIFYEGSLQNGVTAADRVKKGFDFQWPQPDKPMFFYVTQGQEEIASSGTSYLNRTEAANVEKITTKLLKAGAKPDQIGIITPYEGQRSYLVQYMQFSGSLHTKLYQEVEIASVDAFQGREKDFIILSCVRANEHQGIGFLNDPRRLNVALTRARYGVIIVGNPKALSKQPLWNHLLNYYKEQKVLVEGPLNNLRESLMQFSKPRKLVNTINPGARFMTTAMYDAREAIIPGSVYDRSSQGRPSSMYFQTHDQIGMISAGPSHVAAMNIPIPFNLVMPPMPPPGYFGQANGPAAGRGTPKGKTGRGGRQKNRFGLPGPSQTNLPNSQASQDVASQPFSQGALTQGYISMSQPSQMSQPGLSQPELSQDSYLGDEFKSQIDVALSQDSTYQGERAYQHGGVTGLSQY
Chain of proteins of HEK293T cells transiently overexpressing caspase-6 (Homo sapiens, UniProt P35908) (P35908 whole entry): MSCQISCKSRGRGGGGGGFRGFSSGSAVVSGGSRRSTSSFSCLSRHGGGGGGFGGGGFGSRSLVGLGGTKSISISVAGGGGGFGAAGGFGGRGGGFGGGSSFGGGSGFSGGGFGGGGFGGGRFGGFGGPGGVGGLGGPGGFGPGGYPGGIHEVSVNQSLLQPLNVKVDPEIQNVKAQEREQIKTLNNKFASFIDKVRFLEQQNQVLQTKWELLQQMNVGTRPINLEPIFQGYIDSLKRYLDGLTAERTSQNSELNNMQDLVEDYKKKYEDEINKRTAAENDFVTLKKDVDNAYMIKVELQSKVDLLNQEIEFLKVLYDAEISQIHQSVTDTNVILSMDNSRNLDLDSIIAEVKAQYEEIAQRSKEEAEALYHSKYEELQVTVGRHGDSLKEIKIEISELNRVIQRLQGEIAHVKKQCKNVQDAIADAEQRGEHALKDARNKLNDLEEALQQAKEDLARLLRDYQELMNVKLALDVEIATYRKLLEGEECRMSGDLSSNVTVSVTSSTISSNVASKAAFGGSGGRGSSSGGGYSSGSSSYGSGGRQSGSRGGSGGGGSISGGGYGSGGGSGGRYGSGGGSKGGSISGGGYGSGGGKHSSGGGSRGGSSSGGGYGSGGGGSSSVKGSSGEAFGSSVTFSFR
Chain of proteins of HEK293T cells transiently overexpressing caspase-6 (Homo sapiens, UniProt P04406) (P04406 whole entry): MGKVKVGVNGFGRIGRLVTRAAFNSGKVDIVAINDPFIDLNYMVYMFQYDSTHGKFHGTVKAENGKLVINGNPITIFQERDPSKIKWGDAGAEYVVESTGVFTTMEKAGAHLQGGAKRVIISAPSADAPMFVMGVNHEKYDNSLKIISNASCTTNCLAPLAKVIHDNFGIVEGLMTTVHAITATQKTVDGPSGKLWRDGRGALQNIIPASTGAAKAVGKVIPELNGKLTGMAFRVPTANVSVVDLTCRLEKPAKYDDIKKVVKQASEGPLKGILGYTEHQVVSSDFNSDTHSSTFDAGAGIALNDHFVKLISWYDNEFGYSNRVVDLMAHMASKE
Chain of proteins of HEK293T cells transiently overexpressing caspase-6 (Homo sapiens, UniProt P40227) (P40227 whole entry): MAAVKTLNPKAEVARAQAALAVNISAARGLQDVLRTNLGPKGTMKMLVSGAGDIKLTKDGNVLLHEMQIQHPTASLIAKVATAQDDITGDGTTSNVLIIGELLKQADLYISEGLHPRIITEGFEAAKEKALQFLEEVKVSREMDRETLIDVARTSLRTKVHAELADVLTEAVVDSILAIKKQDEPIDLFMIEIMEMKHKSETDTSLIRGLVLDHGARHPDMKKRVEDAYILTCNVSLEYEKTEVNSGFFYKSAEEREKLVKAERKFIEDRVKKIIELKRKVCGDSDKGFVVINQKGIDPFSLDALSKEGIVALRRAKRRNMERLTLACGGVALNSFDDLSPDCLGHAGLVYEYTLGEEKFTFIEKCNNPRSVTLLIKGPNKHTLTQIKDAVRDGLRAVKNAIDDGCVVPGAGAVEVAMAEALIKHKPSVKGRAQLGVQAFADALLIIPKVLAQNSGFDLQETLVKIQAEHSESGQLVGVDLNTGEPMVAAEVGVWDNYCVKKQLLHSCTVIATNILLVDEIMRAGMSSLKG

With `C#CCOc1ccc([C@@H]2C[C@@H](C(=O)Nc3ccc(OC(F)(F)F)cc3)CN(S(=O)(=O)C=C)C2)cc1` (relative stereo) [13-t], the enrich.exp.med in assay [1] is recorded as -8.257; in [2], -0.1466; in assay [3] (exp_ref Probe, analysis C6) it was 1.1798; in assay [4], 0.8584; in [5] it was 0.2516; in [6], 0.006951. Besides, the enrich.exp.med in assay [7] (exp_ref Probe, analysis C6) is on record as 1.54; in assay [8] (exp_ref Probe, analysis C6), 1.085; in assay [9], 0.4718; in assay [10] (exp_ref Probe, analysis C6), 0.6793; in [11], -0.4971; in assay [12], -1.399. Moreover, the enrich.exp.med.lin is given as 2.265 in assay [3], 2.907 in assay [7], 2.121 in [8] and 1.601 in assay [10]. Besides, the enrich.exp.med.log2 is recorded as 1.1798 in [3], 1.54 in [7], 1.085 in assay [8] and 0.6793 in assay [10].
